Assay results as given in PubChem BioAssay (NCI).
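How tested: cells in 96-well plates exposed to compound for 48 hours at five concentrations. The concentration for 50% growth inhibition is given as GI50. TGI marks complete inhibition of growth.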

What was measured:
Test in all cases: NCI-60 cell line screen, 48 h
UACC-257 melanoma = tested on: UACC-257 melanoma
MDA-MB-435 = tested on: MDA-MB-435
SN12C renal = tested on: SN12C renal
COLO 205 colon = tested on: COLO 205 colon
MALME-3M melanoma = tested on: MALME-3M melanoma
LOX IMVI melanoma = tested on: LOX IMVI melanoma
TK-10 renal = tested on: TK-10 renal
UACC-62 melanoma = tested on: UACC-62 melanoma
RXF 393 renal = tested on: RXF 393 renal
SW-620 colon = tested on: SW-620 colon
M14 melanoma = tested on: M14 melanoma
HOP-92 NSCLC = tested on: HOP-92 NSCLC
SK-MEL-28 melanoma = tested on: SK-MEL-28 melanoma
SR leukemia = tested on: SR leukemia
BT-549 breast = tested on: BT-549 breast
OVCAR-8 ovarian = tested on: OVCAR-8 ovarian
MDA-MB-231 breast = tested on: MDA-MB-231 breast
SNB-75 CNS = tested on: SNB-75 CNS
OVCAR-4 ovarian = tested on: OVCAR-4 ovarian
NCI-H226 lung = tested on: NCI-H226 lung
SK-MEL-5 melanoma = tested on: SK-MEL-5 melanoma
RPMI-8226 leukemia = tested on: RPMI-8226 leukemia
SF-539 CNS = tested on: SF-539 CNS
A549 NSCLC = tested on: A549 NSCLC
EKVX NSCLC = tested on: EKVX NSCLC
HOP-62 NSCLC = tested on: HOP-62 NSCLC
786-0 renal = tested on: 786-0 renal
HCT-15 colon = tested on: HCT-15 colon
SF-295 CNS = tested on: SF-295 CNS

## CCOC(=O)C1=C(C)NC(C)=C(C(=O)OCC)C1c1cc(Br)c(O)c(OC)c1
UACC-257 melanoma
  GI50: 12.6 µM
  TGI: 31.4 µM
MDA-MB-435
  GI50: 1.85 µM
  TGI: 6.2 µM
SN12C renal
  GI50: 6.07 µM
  TGI: 22.5 µM
COLO 205 colon
  GI50: 10.3 µM
  TGI: 22.9 µM
MALME-3M melanoma
  GI50: 10.6 µM
  TGI: 32.7 µM
LOX IMVI melanoma
  GI50: 5.23 µM
  TGI: 18.6 µM
TK-10 renal
  GI50: 9.54 µM
  TGI: 39.2 µM
UACC-62 melanoma
  GI50: 4.71 µM
  TGI: 17 µM
RXF 393 renal
  GI50: 1.98 µM
  TGI: 6.05 µM
SW-620 colon
  GI50: 4.12 µM
  TGI: 16.3 µM
M14 melanoma
  GI50: 3.05 µM
  TGI: 10.1 µM
HOP-92 NSCLC
  GI50: 1.82 µM
  TGI: 12.3 µM
SK-MEL-28 melanoma
  GI50: 4.32 µM
  TGI: 16.7 µM
SR leukemia
  GI50: 2.01 µM
  TGI: 21.2 µM
BT-549 breast
  GI50: 2.8 µM
  TGI: 10.6 µM
OVCAR-8 ovarian
  GI50: 4.47 µM
  TGI: 38.9 µM
MDA-MB-231 breast
  GI50: 6.15 µM
  TGI: 20.4 µM
SNB-75 CNS
  GI50: 1.85 µM
  TGI: 7.14 µM
OVCAR-4 ovarian
  GI50: 5.97 µM
  TGI: 37 µM
NCI-H226 lung
  GI50: 2.77 µM
  TGI: 12.4 µM
SK-MEL-5 melanoma
  GI50: 3.61 µM
  TGI: 14.6 µM
RPMI-8226 leukemia
  GI50: 4.52 µM
  TGI: 41.4 µM
SF-539 CNS
  GI50: 2.64 µM
  TGI: 7.07 µM
A549 NSCLC
  GI50: 4.11 µM
  TGI: 18.8 µM
EKVX NSCLC
  GI50: 7.65 µM
  TGI: 34.4 µM
HOP-62 NSCLC
  GI50: 4.37 µM
  TGI: 14.7 µM
786-0 renal
  GI50: 4.01 µM
  TGI: 18 µM
HCT-15 colon
  GI50: 3.65 µM
  TGI: 14.2 µM
SF-295 CNS
  GI50: 2.89 µM
